Reference: patent US20230372331A1, “PHARMACEUTICAL COMPOSITION” (ANXO PHARMACEUTICAL CO., LTD., priority 2022, published 2023)
Where a name gives a salt, the structure may show the parent alone.

Assay: Solubility of cariprazine forms in acetate medium
Assay type: physicochemical
Text: Different drug solubilities of cariprazine HCl and cariprazine base could be the reason to affect the release of cariprazine in the pharmaceutical compositions. […] The release profile of cariprazine in pharmaceutical composition with combo cariprazine base and cariprazine HCl were between pharmaceutical compositions B-752H-TF8-N and C-752H-TF8-N.

## CN(C)C(=O)N[C@H]1CC[C@H](CCN2CCN(c3cccc(Cl)c3Cl)CC2)CC1 [Cariprazine HCl, cariprazine HCl]
  solubility in acetate medium (in words): higher solubility in acetate medium than cariprazine base
